One assay relates to IGROV-1. Description: Antitumor activity against human IGROV1 cells. Type of assay: functional.
In a further assay the test system is NCI-H522. Description: Antitumor activity against human NCI-H522 cells. Format: functional.

The text below walks through data of ChEMBL document CHEMBL1150095, “Antitumor activity and stereochemistry of acetylenic alcohols from the sponge Cribrochalina vasculum” (1995).

SMILES strings stand for the structures. Activity calls are given as the source filed them. No cut-off for these calls is given here.

As to `C#C[C@@H](O)/C=C/CCCCCCCCC(C)CCCCCCCC` (some centres not stated), the result in the assay on IGROV-1 and in the assay with NCI-H522 was Active.
